# Measurements as given in PubChem BioAssay (NCI).
#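 Following 48 hours of exposure in 96-well plates, responses at five concentrations were used to interpolate endpoints linearly. Definition used: TGI = concentration required for complete inhibition of growth.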
# Key:
# Experiment in all cases: NCI tumour cell line growth inhibition, 48 h
# 786-0 renal = test system: 786-0 renal
# A498 renal = test system: A498 renal
# A549 NSCLC = test system: A549 NSCLC
# ACHN renal = test system: ACHN renal
# BT-549 breast = test system: BT-549 breast
# CAKI-1 renal = test system: CAKI-1 renal
# CCRF-CEM leukemia = test system: CCRF-CEM leukemia
# COLO 205 colon = test system: COLO 205 colon
# DLD-1 colon = test system: DLD-1 colon
# DMS 114 small cell lung = test system: DMS 114 small cell lung
# DMS 273 small cell lung = test system: DMS 273 small cell lung
# DU-145 prostate = test system: DU-145 prostate
# EKVX NSCLC = test system: EKVX NSCLC
# HCC-2998 colon = test system: HCC-2998 colon
# HCT-116 colon = test system: HCT-116 colon
# HCT-15 colon = test system: HCT-15 colon
# HL-60(TB) leukemia = test system: HL-60(TB) leukemia
# HOP-18 NSCLC = test system: HOP-18 NSCLC
# HOP-62 NSCLC = test system: HOP-62 NSCLC
# HOP-92 NSCLC = test system: HOP-92 NSCLC
# HS 578T breast = test system: HS 578T breast
# HT29 colon = test system: HT29 colon
# IGROV1 ovarian = test system: IGROV1 ovarian
# K-562 leukemia = test system: K-562 leukemia
# KM12 colon = test system: KM12 colon
# KM20L2 colon = test system: KM20L2 colon
# LOX IMVI melanoma = test system: LOX IMVI melanoma
# LXFL 529 NSCLC = test system: LXFL 529 NSCLC
# M14 melanoma = test system: M14 melanoma
# M19-MEL melanoma = test system: M19-MEL melanoma
# MALME-3M melanoma = test system: MALME-3M melanoma
# MCF7 breast = test system: MCF7 breast
# MDA-MB-231 breast = test system: MDA-MB-231 breast
# MDA-MB-435 = test system: MDA-MB-435
# MOLT-4 leukemia = test system: MOLT-4 leukemia
# NCI-H226 lung = test system: NCI-H226 lung
# NCI-H23 lung = test system: NCI-H23 lung
# NCI-H460 lung = test system: NCI-H460 lung
# NCI-H522 lung = test system: NCI-H522 lung
# NCI/ADR-RES ovarian = test system: NCI/ADR-RES ovarian
# OVCAR-3 ovarian = test system: OVCAR-3 ovarian
# OVCAR-4 ovarian = test system: OVCAR-4 ovarian
# OVCAR-5 ovarian = test system: OVCAR-5 ovarian
# OVCAR-8 ovarian = test system: OVCAR-8 ovarian
# P388 leukemia = test system: P388 leukemia
# P388/ADR leukemia = test system: P388/ADR leukemia
# PC-3 prostate = test system: PC-3 prostate
# RPMI-8226 leukemia = test system: RPMI-8226 leukemia
# RXF 393 renal = test system: RXF 393 renal
# SF-268 CNS = test system: SF-268 CNS
# SF-295 CNS = test system: SF-295 CNS
# SF-539 CNS = test system: SF-539 CNS
# SK-MEL-2 melanoma = test system: SK-MEL-2 melanoma
# SK-MEL-28 melanoma = test system: SK-MEL-28 melanoma
# SK-MEL-5 melanoma = test system: SK-MEL-5 melanoma
# SK-OV-3 ovarian = test system: SK-OV-3 ovarian
# SN12C renal = test system: SN12C renal
# SN12K1 renal = test system: SN12K1 renal
# SNB-19 CNS = test system: SNB-19 CNS
# SNB-75 CNS = test system: SNB-75 CNS
# SNB-78 CNS = test system: SNB-78 CNS
# SR leukemia = test system: SR leukemia
# SW-620 colon = test system: SW-620 colon
# T-47D breast = test system: T-47D breast
# TK-10 renal = test system: TK-10 renal
# U251 CNS = test system: U251 CNS
# UACC-257 melanoma = test system: UACC-257 melanoma
# UACC-62 melanoma = test system: UACC-62 melanoma
# UO-31 renal = test system: UO-31 renal
# XF 498 CNS = test system: XF 498 CNS
compound,measurement,setting,value
CC(C)NC(=O)OCc1c(COC(=O)NC(C)C)c(-c2ccc(Cl)c(Cl)c2)n2c1CCC2,TGI,786-0 renal,44.5 µM
same,TGI,A498 renal,43.3 µM
same,TGI,A549 NSCLC,29.6 µM
same,TGI,ACHN renal,43.6 µM
same,TGI,BT-549 breast,> 100 µM
same,TGI,CAKI-1 renal,42.2 µM
same,TGI,CCRF-CEM leukemia,44.6 µM
same,TGI,COLO 205 colon,71.3 µM
same,TGI,DLD-1 colon,> 72.3 µM
same,TGI,DMS 114 small cell lung,57.4 µM
same,TGI,DMS 273 small cell lung,> 67 µM
same,TGI,DU-145 prostate,> 100 µM
same,TGI,EKVX NSCLC,69.6 µM
same,TGI,HCC-2998 colon,61.2 µM
same,TGI,HCT-116 colon,73 µM
same,TGI,HCT-15 colon,71.3 µM
same,TGI,HL-60(TB) leukemia,48.2 µM
same,TGI,HOP-18 NSCLC,> 83.9 µM
same,TGI,HOP-62 NSCLC,62 µM
same,TGI,HOP-92 NSCLC,52.2 µM
same,TGI,HS 578T breast,> 100 µM
same,TGI,HT29 colon,64.1 µM
same,TGI,IGROV1 ovarian,70.6 µM
same,TGI,K-562 leukemia,77.1 µM
same,TGI,KM12 colon,73.1 µM
same,TGI,KM20L2 colon,58.7 µM
same,TGI,LOX IMVI melanoma,66.6 µM
same,TGI,LXFL 529 NSCLC,16.3 µM
same,TGI,M14 melanoma,55.5 µM
same,TGI,M19-MEL melanoma,61.3 µM
same,TGI,MALME-3M melanoma,70.8 µM
same,TGI,MCF7 breast,> 100 µM
same,TGI,MDA-MB-231 breast,> 100 µM
same,TGI,MDA-MB-435,> 100 µM
same,TGI,MOLT-4 leukemia,34.8 µM
same,TGI,NCI-H226 lung,47.4 µM
same,TGI,NCI-H23 lung,60.9 µM
same,TGI,NCI-H460 lung,68.3 µM
same,TGI,NCI-H522 lung,> 74.4 µM
same,TGI,NCI/ADR-RES ovarian,> 100 µM
same,TGI,OVCAR-3 ovarian,69.9 µM
same,TGI,OVCAR-4 ovarian,> 78.8 µM
same,TGI,OVCAR-5 ovarian,64.1 µM
same,TGI,OVCAR-8 ovarian,73.4 µM
same,TGI,P388 leukemia,> 100 µM
same,TGI,P388/ADR leukemia,> 100 µM
same,TGI,PC-3 prostate,> 100 µM
same,TGI,RPMI-8226 leukemia,73.3 µM
same,TGI,RXF 393 renal,46.9 µM
same,TGI,SF-268 CNS,67.6 µM
same,TGI,SF-295 CNS,72.8 µM
same,TGI,SF-539 CNS,65.4 µM
same,TGI,SK-MEL-2 melanoma,> 65.1 µM
same,TGI,SK-MEL-28 melanoma,75.1 µM
same,TGI,SK-MEL-5 melanoma,> 81.7 µM
same,TGI,SK-OV-3 ovarian,> 76.8 µM
same,TGI,SN12C renal,68.2 µM
same,TGI,SN12K1 renal,> 100 µM
same,TGI,SNB-19 CNS,81 µM
same,TGI,SNB-75 CNS,61.7 µM
same,TGI,SNB-78 CNS,41.9 µM
same,TGI,SR leukemia,36.3 µM
same,TGI,SW-620 colon,71.7 µM
same,TGI,T-47D breast,> 56.2 µM
same,TGI,TK-10 renal,88.2 µM
same,TGI,U251 CNS,71.8 µM
same,TGI,UACC-257 melanoma,65.9 µM
same,TGI,UACC-62 melanoma,53.9 µM
same,TGI,UO-31 renal,63.5 µM
same,TGI,XF 498 CNS,> 62.1 µM
